Key:
Experiment in all cases: mobility shift assay
Format in all cases: biochemical
SGK3 = target: T1, SGK3 (Homo sapiens, UniProt Q96BR1)
T1 construct: purchased Carna Biosciences

CLK3 = target: T2, CLK3 (Homo sapiens, UniProt P49761)
T2 construct: purchased Carna Biosciences

FER = target: T3, FER (Homo sapiens, UniProt P16591)
T3 construct: purchased Carna Biosciences

ACK = target: T4, ACK (Homo sapiens, UniProt Q07912)
T4 construct: purchased Carna Biosciences

KDR = target: T5, KDR (Homo sapiens, UniProt P35968)
T5 construct: purchased Carna Biosciences

BRSK2 = target: T6, BRSK2 (Homo sapiens, UniProt Q8IWQ3)
T6 construct: purchased Carna Biosciences

EPHA8 = target: T7, EPHA8 (Homo sapiens, UniProt P29322)
T7 construct: purchased Carna Biosciences

PHKG2 = target: T8, PHKG2 (Homo sapiens, UniProt P15735)
T8 construct: purchased Carna Biosciences

MAPKAPK2 = target: T9, MAPKAPK2 (Homo sapiens, UniProt P49137)
T9 construct: purchased Carna Biosciences

CRIK = target: T10, CRIK (Homo sapiens, UniProt O14578)
T10 construct: purchased Carna Biosciences

CDK9/CvcT1 = target: T11, CDK9/CvcT1 (Homo sapiens, UniProt P50750)
T11 construct: purchased Carna Biosciences

FGR3(K650E) = target: T12, FGR3(K650E) (Homo sapiens, UniProt P22607, K650E)
T12 construct: purchased Carna Biosciences

JAK2 = target: T13, JAK2 (Homo sapiens, UniProt O60674)
T13 construct: purchased Carna Biosciences

MET(Y1235D) = target: T14, MET(Y1235D) (Homo sapiens, UniProt P08581, Y1235D)
T14 construct: purchased Carna Biosciences

CK2α2/β = target: T15, CK2α2/β (Homo sapiens, UniProt P19784)
T15 construct: purchased Carna Biosciences

MARK2 = target: T16, MARK2 (Homo sapiens, UniProt Q7KZI7)
T16 construct: purchased Carna Biosciences

FTI1 = target: T17, FTI1 (Homo sapiens, UniProt P17948)
T17 construct: purchased Carna Biosciences

LCK = target: T18, LCK (Homo sapiens, UniProt P06239)
T18 construct: purchased Carna Biosciences

PDK1 = target: T19, PDK1 (Homo sapiens, UniProt O15530)
T19 construct: purchased Carna Biosciences

FGFR4(V550L) = target: T20, FGFR4(V550L) (Homo sapiens, UniProt P22455, V550L)
T20 construct: purchased Carna Biosciences

PKACγ = target: T21, PKACγ (Homo sapiens, UniProt P22612)
T21 construct: purchased Carna Biosciences

MET(D1228H) = target: T22, MET(D1228H) (Homo sapiens, UniProt P08581, D1228H)
T22 construct: purchased Carna Biosciences

AurA = target: T23, AurA (Homo sapiens, UniProt O14965)
T23 construct: purchased Carna Biosciences

COK6/CycD3 = target: T24, COK6/CycD3 (Homo sapiens, UniProt Q00534)
T24 construct: purchased Carna Biosciences

FGFR3 = target: T25, FGFR3 (Homo sapiens, UniProt P22607)
T25 construct: purchased Carna Biosciences

IKKβ = target: T26, IKKβ (Homo sapiens, UniProt O14920)
T26 construct: purchased Carna Biosciences

KIT(D816V) = target: T27, KIT(D816V) (Homo sapiens, UniProt P10721, D816V)
T27 construct: purchased Carna Biosciences

MLK1_Cascade = target: T28, MLK1_Cascade (Homo sapiens, UniProt P80192)
T28 construct: purchased Carna Biosciences

SRM = target: T29, SRM (Homo sapiens, UniProt Q9H3Y6)
T29 construct: purchased Carna Biosciences

TRKC = target: T30, TRKC (Homo sapiens, UniProt Q16288)
T30 construct: purchased Carna Biosciences

PKCβ2 = target: T31, PKCβ2 (Homo sapiens, UniProt P05771)
T31 construct: purchased Carna Biosciences

MSK1 = target: T32, MSK1 (Homo sapiens, UniProt O75582)
T32 construct: purchased Carna Biosciences

HER4 = target: T33, HER4 (Homo sapiens, UniProt Q15303)
T33 construct: purchased Carna Biosciences

RSK3 = target: T34, RSK3 (Homo sapiens, UniProt Q15349)
T34 construct: purchased Carna Biosciences

LOK = target: T35, LOK (Homo sapiens, UniProt O94804)
T35 construct: purchased Carna Biosciences

NPM1-ALK = target: T36, NPM1-ALK (Homo sapiens, UniProt Q9UM73)
T36 construct: purchased Carna Biosciences; the other entry of the earlier key: NPM1 (P06748, Nucleophosmin)

ALK(L1196M) = target: T37, ALK(L1196M) (Homo sapiens, UniProt Q9UM73, L1196M)
T37 construct: purchased Carna Biosciences

ABL = target: T38, ABL (Homo sapiens, UniProt P00519)
T38 construct: purchased Carna Biosciences

CKIα = target: T39, CKIα (Homo sapiens, UniProt P48729)
T39 construct: purchased Carna Biosciences

CaMK2δ = target: T40, CaMK2δ (Homo sapiens, UniProt Q13557)
T40 construct: purchased Carna Biosciences

DAPK1 = target: T41, DAPK1 (Homo sapiens, UniProt P53355)
T41 construct: purchased Carna Biosciences

T24 sequence (Q00534 whole entry): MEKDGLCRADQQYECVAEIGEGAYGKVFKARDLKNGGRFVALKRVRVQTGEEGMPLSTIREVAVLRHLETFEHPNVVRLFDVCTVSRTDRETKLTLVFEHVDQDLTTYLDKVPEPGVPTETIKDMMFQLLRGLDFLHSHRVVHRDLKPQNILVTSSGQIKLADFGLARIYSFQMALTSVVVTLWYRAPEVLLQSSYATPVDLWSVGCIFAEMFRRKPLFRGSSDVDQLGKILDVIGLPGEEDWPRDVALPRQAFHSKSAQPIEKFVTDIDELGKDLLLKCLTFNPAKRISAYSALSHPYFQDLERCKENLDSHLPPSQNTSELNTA
T24 sequence (P30281 whole entry partner): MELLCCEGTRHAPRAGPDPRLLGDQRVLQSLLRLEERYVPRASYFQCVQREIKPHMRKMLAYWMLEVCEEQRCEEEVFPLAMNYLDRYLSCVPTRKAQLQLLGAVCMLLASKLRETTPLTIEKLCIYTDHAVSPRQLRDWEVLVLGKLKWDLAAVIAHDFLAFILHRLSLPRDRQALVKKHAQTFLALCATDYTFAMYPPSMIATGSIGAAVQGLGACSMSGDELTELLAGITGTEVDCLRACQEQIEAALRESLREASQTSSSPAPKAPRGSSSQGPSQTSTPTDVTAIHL
T31 sequence (P05771 1-673 isoform P05771-2): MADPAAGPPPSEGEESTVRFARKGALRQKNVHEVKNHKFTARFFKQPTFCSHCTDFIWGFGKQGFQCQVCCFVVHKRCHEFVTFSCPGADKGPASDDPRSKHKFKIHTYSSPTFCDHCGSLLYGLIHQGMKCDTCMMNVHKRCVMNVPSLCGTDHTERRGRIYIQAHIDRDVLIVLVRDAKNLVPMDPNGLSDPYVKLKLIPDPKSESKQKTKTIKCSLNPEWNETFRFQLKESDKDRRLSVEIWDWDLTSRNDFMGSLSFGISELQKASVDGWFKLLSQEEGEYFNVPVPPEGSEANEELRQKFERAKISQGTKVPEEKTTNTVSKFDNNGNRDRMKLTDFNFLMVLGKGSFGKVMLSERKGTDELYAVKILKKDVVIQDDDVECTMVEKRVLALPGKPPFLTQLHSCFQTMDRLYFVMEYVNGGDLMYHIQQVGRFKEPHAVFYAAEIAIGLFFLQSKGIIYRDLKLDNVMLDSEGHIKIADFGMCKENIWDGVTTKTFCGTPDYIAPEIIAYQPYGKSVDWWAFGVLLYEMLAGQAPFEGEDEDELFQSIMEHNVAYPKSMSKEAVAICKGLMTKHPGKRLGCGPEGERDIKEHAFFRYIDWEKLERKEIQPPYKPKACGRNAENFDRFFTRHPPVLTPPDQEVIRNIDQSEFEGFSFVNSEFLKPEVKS
T9 sequence (P49137 whole entry): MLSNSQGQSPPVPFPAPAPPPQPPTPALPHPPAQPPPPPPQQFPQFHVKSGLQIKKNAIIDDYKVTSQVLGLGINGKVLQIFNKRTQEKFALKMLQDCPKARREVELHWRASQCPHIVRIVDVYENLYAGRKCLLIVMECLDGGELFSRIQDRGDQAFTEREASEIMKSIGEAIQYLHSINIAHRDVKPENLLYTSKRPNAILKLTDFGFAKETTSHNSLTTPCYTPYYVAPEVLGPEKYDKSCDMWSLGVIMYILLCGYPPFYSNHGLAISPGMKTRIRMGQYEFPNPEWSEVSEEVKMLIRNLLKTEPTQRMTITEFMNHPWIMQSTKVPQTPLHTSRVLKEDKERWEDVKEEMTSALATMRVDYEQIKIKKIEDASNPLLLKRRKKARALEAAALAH
T40 sequence (Q13557 whole entry): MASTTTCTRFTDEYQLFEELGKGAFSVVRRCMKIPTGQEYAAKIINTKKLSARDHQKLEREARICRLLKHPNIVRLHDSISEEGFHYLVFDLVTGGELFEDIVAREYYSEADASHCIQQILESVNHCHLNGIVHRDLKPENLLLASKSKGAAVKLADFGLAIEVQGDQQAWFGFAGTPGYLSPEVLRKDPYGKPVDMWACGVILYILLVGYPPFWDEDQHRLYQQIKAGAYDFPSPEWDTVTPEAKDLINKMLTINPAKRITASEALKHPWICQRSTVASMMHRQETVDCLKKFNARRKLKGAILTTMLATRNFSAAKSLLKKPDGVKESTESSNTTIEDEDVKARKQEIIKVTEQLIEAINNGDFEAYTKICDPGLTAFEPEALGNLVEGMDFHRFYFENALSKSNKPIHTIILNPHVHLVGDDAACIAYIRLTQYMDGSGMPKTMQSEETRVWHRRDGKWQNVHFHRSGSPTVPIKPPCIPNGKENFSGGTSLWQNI
T29 sequence (Q9H3Y6 whole entry): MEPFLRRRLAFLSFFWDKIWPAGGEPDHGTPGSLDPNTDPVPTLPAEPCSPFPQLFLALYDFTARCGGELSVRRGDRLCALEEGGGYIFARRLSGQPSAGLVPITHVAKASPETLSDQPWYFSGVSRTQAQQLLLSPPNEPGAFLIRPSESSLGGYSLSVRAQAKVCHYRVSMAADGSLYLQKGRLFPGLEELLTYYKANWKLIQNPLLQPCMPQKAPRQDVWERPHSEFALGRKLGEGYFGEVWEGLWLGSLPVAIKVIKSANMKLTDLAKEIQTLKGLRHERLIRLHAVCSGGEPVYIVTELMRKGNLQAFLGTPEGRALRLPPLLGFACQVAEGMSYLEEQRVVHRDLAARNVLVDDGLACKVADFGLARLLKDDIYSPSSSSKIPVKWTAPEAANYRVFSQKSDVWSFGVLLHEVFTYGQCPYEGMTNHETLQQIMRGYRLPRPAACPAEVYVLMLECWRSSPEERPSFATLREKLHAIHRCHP
T36 sequence (Q9UM73 with tags, fused parts or gaps): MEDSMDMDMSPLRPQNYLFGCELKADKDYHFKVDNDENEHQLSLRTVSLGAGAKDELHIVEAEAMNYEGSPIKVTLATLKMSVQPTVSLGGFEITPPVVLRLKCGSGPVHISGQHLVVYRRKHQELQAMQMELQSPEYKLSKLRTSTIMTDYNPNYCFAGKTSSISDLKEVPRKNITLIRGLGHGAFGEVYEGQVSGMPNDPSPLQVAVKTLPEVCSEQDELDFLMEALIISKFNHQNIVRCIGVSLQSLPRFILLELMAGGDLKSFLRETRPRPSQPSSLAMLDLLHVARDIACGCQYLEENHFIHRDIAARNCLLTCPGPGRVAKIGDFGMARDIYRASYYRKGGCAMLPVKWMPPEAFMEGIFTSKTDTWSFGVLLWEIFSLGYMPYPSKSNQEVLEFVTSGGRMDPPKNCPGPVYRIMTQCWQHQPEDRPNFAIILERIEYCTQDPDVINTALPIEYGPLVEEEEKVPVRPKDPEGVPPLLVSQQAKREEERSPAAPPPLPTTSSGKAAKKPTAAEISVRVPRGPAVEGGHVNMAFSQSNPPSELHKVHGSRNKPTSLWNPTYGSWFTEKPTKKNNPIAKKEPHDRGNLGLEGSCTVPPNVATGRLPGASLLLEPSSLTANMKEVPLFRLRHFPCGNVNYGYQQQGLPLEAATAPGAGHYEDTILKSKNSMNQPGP
T35 sequence (O94804 whole entry): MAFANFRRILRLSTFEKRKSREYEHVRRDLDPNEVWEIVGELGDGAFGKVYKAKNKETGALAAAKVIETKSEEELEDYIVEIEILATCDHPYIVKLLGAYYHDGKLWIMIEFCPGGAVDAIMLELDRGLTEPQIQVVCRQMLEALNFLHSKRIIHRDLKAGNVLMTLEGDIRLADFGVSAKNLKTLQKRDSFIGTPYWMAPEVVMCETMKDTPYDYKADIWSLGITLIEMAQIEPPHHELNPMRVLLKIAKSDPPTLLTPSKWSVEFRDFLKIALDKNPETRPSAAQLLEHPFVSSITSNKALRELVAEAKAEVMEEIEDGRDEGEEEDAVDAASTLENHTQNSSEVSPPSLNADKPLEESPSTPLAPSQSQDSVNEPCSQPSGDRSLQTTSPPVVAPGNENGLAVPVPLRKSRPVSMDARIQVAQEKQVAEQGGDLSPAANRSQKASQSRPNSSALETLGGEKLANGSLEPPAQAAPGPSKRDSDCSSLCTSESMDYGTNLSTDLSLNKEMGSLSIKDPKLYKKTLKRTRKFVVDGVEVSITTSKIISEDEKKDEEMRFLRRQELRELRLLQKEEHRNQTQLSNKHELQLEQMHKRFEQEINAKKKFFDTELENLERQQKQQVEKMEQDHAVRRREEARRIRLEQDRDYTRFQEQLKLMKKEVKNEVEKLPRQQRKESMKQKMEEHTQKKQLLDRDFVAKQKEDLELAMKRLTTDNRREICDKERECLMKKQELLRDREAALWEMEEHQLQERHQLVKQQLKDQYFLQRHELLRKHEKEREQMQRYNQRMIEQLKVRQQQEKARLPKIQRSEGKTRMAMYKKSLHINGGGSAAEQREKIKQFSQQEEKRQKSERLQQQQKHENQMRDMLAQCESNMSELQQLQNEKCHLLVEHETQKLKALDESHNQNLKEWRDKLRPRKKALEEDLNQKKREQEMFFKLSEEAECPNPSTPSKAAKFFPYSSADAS
T21 sequence (P22612 whole entry): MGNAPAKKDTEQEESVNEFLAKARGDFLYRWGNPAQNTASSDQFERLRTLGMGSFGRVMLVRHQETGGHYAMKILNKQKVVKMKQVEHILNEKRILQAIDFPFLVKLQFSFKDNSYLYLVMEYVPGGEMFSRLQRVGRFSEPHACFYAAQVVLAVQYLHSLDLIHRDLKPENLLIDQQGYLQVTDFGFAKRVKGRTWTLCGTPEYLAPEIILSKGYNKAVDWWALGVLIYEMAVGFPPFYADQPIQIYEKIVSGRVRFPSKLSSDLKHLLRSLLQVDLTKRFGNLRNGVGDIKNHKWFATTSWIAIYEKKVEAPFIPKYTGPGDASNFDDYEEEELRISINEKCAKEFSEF

## C[C@@H]1CC[C@H]2C(C)(C)CCC[C@]2(C)c2c1oc1c(C=O)c(O)c(O)cc21 [LG-1, liphagal]
SGK3
  inhibition at 10 µM: -0.5%
CLK3
  inhibition at 10 µM: 5.7%
FER
  inhibition at 10 µM: 42.8%
ACK
  inhibition at 10 µM: 8.4%
KDR
  inhibition at 10 µM: -1.1%
BRSK2
  inhibition at 10 µM: 9.3%
EPHA8
  inhibition at 10 µM: 0.8%
PHKG2
  inhibition at 10 µM: 1.5%
MAPKAPK2
  inhibition at 10 µM: 0.5%
CRIK
  inhibition at 10 µM: -0.8%
CDK9/CvcT1
  inhibition at 10 µM: 18.8%
FGR3(K650E)
  inhibition at 10 µM: -8.4%
JAK2
  inhibition at 10 µM: -0.7%
MET(Y1235D)
  inhibition at 10 µM: 5%
CK2α2/β
  inhibition at 10 µM: 9%
MARK2
  inhibition at 10 µM: 2.7%
FTI1
  inhibition at 10 µM: 10.4%
LCK
  inhibition at 10 µM: 11%
PDK1
  inhibition at 10 µM: -97.8%
FGFR4(V550L)
  inhibition at 10 µM: 7.8%
PKACγ
  inhibition at 10 µM: 18.7%
MET(D1228H)
  inhibition at 10 µM: 2.9%
AurA
  inhibition at 10 µM: 53.9%
COK6/CycD3; COK6/CycD3
  inhibition at 10 µM: 72.7%
COK6/CycD3; in words, 10 μM
  inhibitory activity against CDK6: Potent inhibitory activity
FGFR3
  inhibition at 10 µM: -4.4%
IKKβ
  inhibition at 10 µM: 2.4%
KIT(D816V)
  inhibition at 10 µM: 13%
MLK1_Cascade
  inhibition at 10 µM: 16.3%
SRM
  inhibition at 10 µM: 19%
TRKC
  inhibition at 10 µM: 11.3%
PKCβ2
  inhibition at 10 µM: -13.2%
MSK1
  inhibition at 10 µM: 5%
HER4
  inhibition at 10 µM: 17.9%
RSK3
  inhibition at 10 µM: 8.1%
LOK
  inhibition at 10 µM: 15.8%
NPM1-ALK
  inhibition at 10 µM: 2.3%
ALK(L1196M)
  inhibition at 10 µM: -1.5%
ABL
  inhibition at 10 µM: 0.4%
CKIα
  inhibition at 10 µM: 20.5%
CaMK2δ
  inhibition at 10 µM: 7.7%
DAPK1
  inhibition at 10 µM: 1.8%
